Key:
[1] = system: caspase3/7; assay: Stretch injury induced caspase3/7 activity; assay type: cell-based, rat; conditions: 75 μM pre-treated 30 minutes; 24 hours after injury
Procedure: Rat cortical neurons are isolated from E16 embryos, and plated on silicone membranes (with defined elastic properties) held in a custom made stainless steel chamber. DIV 7-9 neurons are subjected to a (computer controlled) preset stretch injury; strain rate 10 s^−1 and 50% membrane deformation. AQ2S or DMSO (vehicle control) was added before (pre-treatment) or after post-treatment) injury, Cell death was assayed ˜24 hours after injury by measuring 1) extracellular LDH in the culture media (released from dying/dead cells), 2) caspase-3/7 activation (a protease involved in execution of cell death), and 3) MTT metabolism (a reagent metabolized by living cells).
Caspase activation plays a role in cell death after TBI. Primary rat cortical neurons were grown on a custom made stretch-injury device (An in vitro model of TBI). Neurons were pre-treated with 75 μM AQ2S or vehicle only (DMSO control) for 30 minutes, and subjected to a defined stretch injury. 24 hours after injury caspase3/7 activity was measured. […] (C) In a third experiment, AQ2S was administered 30 minutes before (pre-treatment) or 30 minutes after (post-treatment) stretch-TBI (FIG. 19C) (Experiment 3, n=3/treatment). Data was analyzed using ANOVA and Fisher LSD post-hoc test. Data is significant at (*) p<0.05. Graphs show Mean+SEM.

[2] = system: primary rat neurons, astrocytes, and cerebral endothelial cells; conditions: cited from earlier work
[3] = system: primary rat cortical neurons; assay: Ischemia (OGD) injury, neuron viability; assay type: cell-based; conditions: 1 hour OGD; 75 μM during and after injury; 24 hours
Procedure: AQ2S was dissolved in 100% DMSO (vehicle). Rat cortical neurons were isolated from E17 embryos, and seeded onto 96-well plates at a density of 7.5×10^4/well. At D.I.V. 10-11 culture maintenance media was replaced with treatment media (Modified Eagles Buffered Solution) without or with 25 μM Glucose. In addition, neurons were incubated with or without oxygen (induced by placement of cell plates in an anoxic chamber flushed with a gas mixture to remove oxygen). OGD injury was administered for 1 hour. […] Neuron viability was measured 24 hours post-injury by incubation with CellTiter Blue reagent (PROMEGA) for 3.5 hours. CellTiter Blue is metabolized into a fluorescent reagent only in living cells. The level of fluorescence (expressed as relative fluorescent units; RFU) was measured on a plate reader (PROMEGA).
Primary rat cortical neurons were grown onto 96-well plates. Neurons were injured by a 1 hour treatment with/without 25 μM glucose and with/without oxygen. DMSO or 75 μM AQ2S were added to OGD treatment media during the 1 h ischemic injury period. After 1 hour injury, cells were returned to regular growth media and normoxic culture conditions (i.e. 95% […]/5% CO2) with either DMSO or 75 μM AQ2S. Cell viability was measured 24 hours later and expressed as relative fluorescent units (RFU). […] Data were analyzed by ANOVA (p<0.0001); Fisher LSD post-hoc test. * indicates p<0.05. […]

[4] = system: mice; conditions: IP 100, 200 or 400 mg/kg; cited from earlier work
[5] = system: primary rat cortical neurons; assay: Glutamate excitotoxic injury, neuron viability; assay type: cell-based; conditions: 5 μM glutamate 5 minute; post-injury 125 μM; 24 hours
Procedure: Drugs (AQ2S and MK801) were dissolved in 100% DMSO (vehicle). Rat cortical neurons were isolated from E17 embryos, and seeded onto 96-well plates at a density of 1.5×10^5/well. At day-in-vitro 8 (D.I.V. 8) culture maintenance media was replaced with treatment media (Modified Eagles Buffered Solution) without or with 5 μM Glutamate. After a 5 minute injury in treatment solution, cells were returned to normal culture maintenance media conditions (Neurobasal/B27 supplement) with either: 1) DMSO, 2) 125 μM AQ2S or 3) MK801; MK801 is an NMDA receptor channel blocker and classic neuroprotectant in this injury paradigm. Neuron viability was measured 24 hours post-injury by incubation with CellTiter Blue reagent (PROMEGA) for 2 hours. CellTiter Blue is metabolized into a fluorescent reagent only in living cells. The level of fluorescence (expressed as relative fluorescent units; RFU) was measured on a plate reader (PROMEGA).
Primary rat cortical neurons were grown onto 96-well plates. Neurons were treated with or without 5 μM glutamate. Cells were returned to regular growth media with DMSO, 125 μM AQ2S, or MK801 and viability measured 24 hours later (expressed as relative fluorescent units; RFU). […] Injury (n=7), Glut+AQ2S (n=7) and Glut+MK-801 (n=6). White bar indicated absence of glutamate injury. […] Data were analyzed by ANOVA (p<0.0001); Fisher LSD post-hoc test. * indicates p<0.05. […]

[6] = system: caspase-9; assay: STS-induced caspase-9 activity in neurons; assay type: cell-based, rat; conditions: 150 nM STS 24 hours; co-treatment 75 μM
[7] = system: rats; conditions: intraperitoneal; cited from earlier work
[8] = system: primary rat cortical neurons; assay: H2O2 injury, neuronal viability 24 h (CellTiter-Blue); conditions: 40 μM H2O2

O=C1c2ccccc2C(=O)c2cc(S(=O)(=O)O)ccc21 [AQ2S, anthraquinone-2-sulfonic acid]
stretch injury induced caspase3/7 activity [1]: significantly reduced caspase activation | superoxide anion (O2^−) levels ([2]; 980 μM, over 60 minute): significantly upregulated superoxide anion (O2^−) levels | toxicity ([2]; 980 μM): lack of toxicity | cell viability ([2]; 5000 μM): 50% | viability after ischemic (OGD) injury [3]: significantly increases viability | survival [4]: all animals survived to toxicology day 5 | tumor formation [4]: did not inhibit tumor formation | viability after glutamate injury [5]: significantly protects neurons from glutamate induced cell death | caspase-9 activity [6]: significantly reduced baseline and injury activity levels | Acute LD50 [7]: 730 mg/kg | neuronal death after H2O2 injury ([8]; post-treatment 50 μM, 24 h): significantly reduced H2O2 induced cell death | neuronal death after H2O2 injury ([8]; post-treatment 75 μM, 24 h after injury): potently prevented cell death

Reference: patent US10857112B2, “Small molecule inhibitors of RNA binding motif (RBM) proteins for the treatment of acute cellular injury” (University of Pittsburgh—Of the Commonwealth System of …, priority 2012, dated 2020)
